Where “and” joins values, the source holds several entries; their conditions need not be identical. Identical values can stand only once. ± gives the expanded uncertainty stated by the source.
Legend:
[1] = Molar enthalpy of transition or fusion; conditions: Crystal; DSC
[2] = Crystal; DTA

SMILES: CCOC(=O)NCCOc1ccc(Oc2ccccc2)cc1 [fenoxycarb]
- Molar enthalpy of transition or fusion [1]: 6.75 kcal/mol and 6.39 kcal/mol
- Normal melting temperature [2]: 53.47 ± 0.48 °C and 52.70 ± 0.87 °C
